What all share (type): physicochemical
A short description of data set [1]: 19F NMR stability of B-F bond with 20 mM boric acid chase or in presence of boric acid. The settings on record: 20 mM boric acid chase (chase at 1 h, NMR at 2 h) or fluorination in presence of 20 mM boric acid. As for the experimental part:
Fluorination after a 20 mM boric acid chase (chase at 1 h, NMR taken at 2 h): ^19F NMR (300 MHz, D2O, TFA ref) δ −50.23 (fluorine-boric acid species #1), δ−53.89 (KHF2), δ −62.3 (fluorine-boric acid species #2), δ −66.30 (s, φBF3). Fluorination in the presence of boric acid: ^19F NMR (300 MHz, D2O, TFA ref) δ −50.02 (fluorine-boric acid species #1), δ −52.47 (KHF2), δ −62.0 (fluorine-boric acid species #2), δ −65.65 (s, φBF3).

Data set [2] in a line: Kinetics of fluorination of boron compound with KHF2. The settings on record: 100 mM Acetic acid at pH 3.5. The source says: Prior to ^18F-labeling of the final DNA compound or other boron-based fluoride acceptors, dilute labeling conditions were developed for 4-(4,4,5,5-Tetramethyl-1,3,2-dioxaborolan-2-yl) aniline with cold ^19F and the expectation that these labeling conditions can be extrapolated onto ^18F studies. […]

Data set [3] is described as follows: Spectroscopic study of protecting group hydrolysis rate. The settings on record: 200 mM Acetic acid at pH 3.5, 2 mM boron compound, 20 mM KHF2. As for the experimental part:
Prior to ^18F-labeling of the final DNA compound or other boron-based fluoride acceptors, dilute labeling conditions were developed for 4-(4,4,5,5-Tetramethyl-1,3,2-dioxaborolan-2-yl) aniline with cold ^19F and the expectation that these labeling conditions can be extrapolated onto ^18F studies. The general conditions established are as follows: 200 mM Acetic acid at pH 3.5, with 2 mM boron compound, and 20 mM KHF2.

`[NH3+]c1ccc([B-](F)(F)F)cc1` [φBF3, 4-Ammoniumphenyl Trifluoroborate]: in data set [1], the “stability of B—F bond (persistence of 19F NMR peak near δ −66)” value is recorded as “stable”.

As for `CC1(C)OB(c2ccc(N)cc2)OC1(C)C` [4-(4,4,5,5-Tetramethyl-1,3,2-dioxaborolan-2-yl) aniline], the rate of fluorination in data set [2] was found to be 2.8 ± 0.3 min⁻¹. Further, the “protecting group hydrolysis rate” value in data set [3] is 0.66 ± 0.04 min⁻¹.

(Values after patent publication US8114381B2, “Radiolabeled compounds and compositions, their precursors and methods for their production” (The University of British Columbia, priority 2004, dated 2012).)
